Measurements: patent US6335323B1, “Compositions for the treatment of peripheral neuropathies containing antidepressants and/or monoamine oxidase inhibitors and/or vitamin B12 and/or precursors or inducers of a neurotransmitter” (The WWK Trust, priority 1996, dated 2002)

How the values were obtained:
[1] = tested on: vitamin B12 neuropathy and mild alcoholic neuropathy; experiment: Clinical case report, vitamin B12 neuropathy and mild alcoholic neuropathy (Case #4); format: in vivo, human; conditions: result in words
Source text: A person with vitamin B12 neuropathy and mild alcoholic neuropathy was studied. Clinical progress with vitamin B12 injections alone was insignificant. […] Previously they required the assistance of another person to walk.

[2] = tested on: neuropathy related to HIV; experiment: Clinical case report, HIV related peripheral neuropathy (Case #9); format: in vivo, human; conditions: result in words
Protocol: A person was HIV positive and complained of moderate peripheral neuropathy including painful neuropathy. They also had mild diabetes of short duration but clinically their neuropathy was diagnosed as that related to HIV. […] They were additionally commenced on L-phenylalanine 500 mg twice daily, whereafter they reported an approximate further 50% improvement in the symptoms of their painful neuropathy.

diabetic neuropathy [3] = conditions: cited from earlier work; for effectiveness against diabetic neuropathy symptoms: prior art statement
diabetic neuropathy [4] = experiment: Clinical case reports of patients with diabetic neuropathy; format: in vivo, human; conditions: single patient case reports; result in words
Source text: The onset of neuropathy was thought to be due to poor control of diabetes. Neuropathic symptoms increased in severity over several years with development of severe diabetic neuropathy including diabetic amyotrophy, painful neuropathy with spasm, diabetic autonomic neuropathy and decreased sensation in the extremities, with numbing and loss of vibration sense. Electromyography confirmed the diagnosis of diabetic neuropathy.
A person with non-insulin dependent diabetes with very severe diabetic neuropathy, including diabetic amyotrophy and bedbound, resistant to current therapies, was commenced on vitamin B12 injections (1 mg at two-week intervals) and L-phenylalanine (as a metabolite of aspartame) 500 mg twice a day.
This case studied here is of the same person with diabetic neuropathy as in case #1, but after the original observation in case #1. The patient was subsequently continued on the same vitamin B12 injections and phenylalanine (500 mg twice daily) only.
A person with non-insulin dependent diabetes for 15 years with reasonable control, developed peripheral painful diabetic neuropathy of two months duration. […]
A person had severe diabetic peripheral neuropathy and resultant Charcot foot joints. […] Vibration sense initially could not be detected at a level below the knee.

| Molecule | effectiveness against diabetic neuropathy symptoms (diabetic neuropathy [3]) | clinical response of diabetic neuropathy signs and symptoms (diabetic neuropathy [4]) | other results |
| --- | --- | --- | --- |
| vitamin B12 |  |  | clinical progress [1]: insignificant |
| CN(C)CCC=C1c2ccccc2CCc2ccccc21 [amitriptyline] |  |  | clinical effect on neuropathy [2]: some mild beneficial effects |
| Cc1cccc(C)c1OCC(C)N (centres unmarked) [mexilitene] | only to be mildly effective |  |  |
| NC(=O)N1c2ccccc2C=Cc2ccccc21 [carbemazepine] | only to be mildly effective | ineffective |  |
| CN(C)CC/C=C1\c2ccccc2CSc2ccccc21 [dothiepin] |  | mild beneficial effect |  |
| CCCCC/C=C\C/C=C\C/C=C\CCCCC(=O)O [gamolenic acid] | may reduce symptoms |  | progression of abnormalities in nerve conduction studies (diabetic neuropathy [3]; recent clinical trials): prevent the progression |
